Measurements taken from PMC12155096 (International Journal of Molecular Sciences, 2025).
Where a name gives a salt, the structure may show the parent alone. Read-outs that look alike come from different tables or passages of the source. Values belong to the compound of their own block, whether it stands above or below them.

What was measured:
[1] = target: T1, human CYP2C19 (Homo sapiens, UniProt P33261); test: biochemical
[2] = target: T2, human CYP1A2 (Homo sapiens, UniProt P05177); test: biochemical
T2 sequence (P05177 1-516): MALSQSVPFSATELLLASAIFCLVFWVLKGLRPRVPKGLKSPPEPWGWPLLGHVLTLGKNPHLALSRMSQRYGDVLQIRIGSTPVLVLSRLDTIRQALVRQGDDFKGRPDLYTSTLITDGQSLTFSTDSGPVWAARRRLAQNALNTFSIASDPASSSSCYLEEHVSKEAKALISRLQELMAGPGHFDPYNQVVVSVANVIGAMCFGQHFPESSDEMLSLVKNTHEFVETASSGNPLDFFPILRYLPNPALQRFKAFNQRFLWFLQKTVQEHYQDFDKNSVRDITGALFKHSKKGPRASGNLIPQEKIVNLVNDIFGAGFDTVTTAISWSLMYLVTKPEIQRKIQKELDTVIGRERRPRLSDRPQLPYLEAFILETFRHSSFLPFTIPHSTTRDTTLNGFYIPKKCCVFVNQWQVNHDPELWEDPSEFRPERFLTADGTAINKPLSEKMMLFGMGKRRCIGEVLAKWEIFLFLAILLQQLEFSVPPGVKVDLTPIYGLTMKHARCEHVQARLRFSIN

[3] = target: CYP3A4 (Homo sapiens, UniProt P08684); test: biochemical
[4] = target: T3, human CYP2C9 (Homo sapiens, UniProt P11712); test: biochemical
[5] = target: human CYP2D6 (Homo sapiens, UniProt P10635); test: biochemical
[6] = target: T3, human CYP2C9
[7] = target: T1, human CYP2C19
[8] = target: T2, human CYP1A2
[9] = CYP2C19 AC50 (half-maximal activity concentration)
[10] = CYP1A2 AC50 (half-maximal activity concentration)
[11] = CYP3A4 AC50 (half-maximal activity concentration)
[12] = CYP2C9 AC50 (half-maximal activity concentration)
[13] = CYP2D6 AC50 (half-maximal activity concentration)

T1 sequence (P33261 whole entry): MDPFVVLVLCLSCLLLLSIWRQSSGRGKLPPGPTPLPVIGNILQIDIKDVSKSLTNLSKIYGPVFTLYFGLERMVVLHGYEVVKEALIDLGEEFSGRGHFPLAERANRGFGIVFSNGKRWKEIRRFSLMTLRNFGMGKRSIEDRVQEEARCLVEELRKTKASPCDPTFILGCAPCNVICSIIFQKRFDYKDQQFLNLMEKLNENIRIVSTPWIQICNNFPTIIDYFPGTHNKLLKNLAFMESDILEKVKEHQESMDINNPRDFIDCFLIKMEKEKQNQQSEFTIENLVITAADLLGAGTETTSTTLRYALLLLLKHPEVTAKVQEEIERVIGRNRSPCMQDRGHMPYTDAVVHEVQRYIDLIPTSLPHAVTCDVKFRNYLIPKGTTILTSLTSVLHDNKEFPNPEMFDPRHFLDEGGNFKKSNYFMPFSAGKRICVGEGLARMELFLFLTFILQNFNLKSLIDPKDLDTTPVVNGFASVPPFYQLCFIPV
T3 sequence (P11712 whole entry): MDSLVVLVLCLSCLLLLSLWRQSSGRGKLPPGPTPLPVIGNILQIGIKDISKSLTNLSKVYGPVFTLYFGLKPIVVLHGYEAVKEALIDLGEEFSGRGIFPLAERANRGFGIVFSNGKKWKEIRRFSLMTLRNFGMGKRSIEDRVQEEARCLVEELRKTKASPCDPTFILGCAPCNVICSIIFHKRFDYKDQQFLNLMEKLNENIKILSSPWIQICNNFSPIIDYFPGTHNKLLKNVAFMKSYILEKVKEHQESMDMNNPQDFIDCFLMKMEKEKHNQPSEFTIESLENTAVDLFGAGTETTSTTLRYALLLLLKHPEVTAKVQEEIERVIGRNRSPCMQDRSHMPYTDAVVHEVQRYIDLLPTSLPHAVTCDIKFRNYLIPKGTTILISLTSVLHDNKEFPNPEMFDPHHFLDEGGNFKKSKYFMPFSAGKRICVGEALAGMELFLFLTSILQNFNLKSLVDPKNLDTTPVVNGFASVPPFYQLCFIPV
CYP3A4, sequence (P08684 whole entry): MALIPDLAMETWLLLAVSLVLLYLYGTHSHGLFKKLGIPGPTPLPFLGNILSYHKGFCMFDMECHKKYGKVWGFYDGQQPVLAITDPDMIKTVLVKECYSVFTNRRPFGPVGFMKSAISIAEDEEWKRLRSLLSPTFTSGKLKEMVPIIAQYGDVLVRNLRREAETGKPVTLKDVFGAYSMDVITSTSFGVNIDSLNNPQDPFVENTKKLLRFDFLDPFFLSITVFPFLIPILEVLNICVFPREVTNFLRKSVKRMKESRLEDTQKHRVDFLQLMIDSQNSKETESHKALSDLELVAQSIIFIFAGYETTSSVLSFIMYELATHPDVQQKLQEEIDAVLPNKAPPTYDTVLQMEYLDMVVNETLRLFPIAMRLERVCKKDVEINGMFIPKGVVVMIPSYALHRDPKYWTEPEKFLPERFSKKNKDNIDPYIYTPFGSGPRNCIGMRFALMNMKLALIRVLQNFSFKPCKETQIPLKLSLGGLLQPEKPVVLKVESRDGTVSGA
human CYP2D6, sequence (P10635 whole entry): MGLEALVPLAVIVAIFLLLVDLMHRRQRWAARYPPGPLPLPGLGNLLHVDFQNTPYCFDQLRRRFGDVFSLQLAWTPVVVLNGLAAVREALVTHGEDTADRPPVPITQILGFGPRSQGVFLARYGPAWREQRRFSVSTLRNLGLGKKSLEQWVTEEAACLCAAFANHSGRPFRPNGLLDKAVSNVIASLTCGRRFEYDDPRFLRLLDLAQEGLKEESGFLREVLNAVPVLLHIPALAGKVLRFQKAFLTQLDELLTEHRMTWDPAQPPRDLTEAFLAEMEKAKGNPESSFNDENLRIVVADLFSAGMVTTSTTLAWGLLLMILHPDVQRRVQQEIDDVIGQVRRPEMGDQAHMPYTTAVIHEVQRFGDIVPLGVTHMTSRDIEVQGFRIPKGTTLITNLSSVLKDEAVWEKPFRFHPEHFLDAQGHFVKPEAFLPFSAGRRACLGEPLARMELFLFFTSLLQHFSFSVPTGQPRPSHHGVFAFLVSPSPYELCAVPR

SMILES: COP(=O)(OC)OC(=CCl)c1cc(Cl)c(Cl)cc1Cl [Tetrachlorovinphos]
AC50 [1, 9]: 6.81 µM
AC50 [2, 10]: 3 µM
AC50 [3, 11]: 3.72 µM
AC50 [4, 12]: 29 µM
AC50 [5, 13]: 33.7 µM

SMILES: CCOP(=O)(Sc1ccccc1)Sc1ccccc1 [Edifenphos]
AC50 [1, 9]: 8.61 µM
AC50 [2, 10]: 13 µM
AC50 [3, 11]: 8.65 µM
AC50 [4, 12]: 29.7 µM
AC50 [5, 13]: 42.7 µM

SMILES: CCCCCCCC(=O)Oc1c(Br)cc(C#N)cc1Br [Bromoxynil octanoate]
AC50 [1, 9]: 32.5 µM
AC50 [2, 10]: 15 µM
AC50 [3, 11]: 15.4 µM
AC50 [4, 12]: 34.5 µM
AC50 [5, 13]: 85.8 µM

SMILES: O=C(C(=O)c1ccccc1)c1ccccc1 [1,2-Diphenylethanedione]
AC50 [1, 9]: 14.8 µM
AC50 [2, 10]: 12.1 µM
AC50 [3, 11]: 35.4 µM
AC50 [4, 12]: 1.13 µM
AC50 [5, 13]: 29.4 µM

SMILES: O=C1C=CC(=O)N1c1ccc(Cc2ccc(N3C(=O)C=CC3=O)cc2)cc1 [Bismaleimide]
AC50 [1, 9]: 8.29 µM
AC50 [2, 10]: 23.9 µM
AC50 [3, 11]: 56.6 µM
AC50 [4, 12]: 4.93 µM
AC50 [5, 13]: 43.6 µM

SMILES: c1ccc(CSCc2ccccc2)cc1 [Benzyl sulfide]
AC50 [1, 9]: 5.94 µM
AC50 [2, 10]: 27.3 µM
AC50 [3, 11]: 7.5 µM
AC50 [4, 12]: 29.8 µM
AC50 [5, 13]: 61.9 µM

SMILES: CNC(=O)Oc1cc(C)cc(C(C)C)c1 [Promecarb]
AC50 [1, 9]: 42.2 µM
AC50 [2, 10]: 26.9 µM
CYP2C9 AC50 (half-maximal activity concentration) [6]: Inactive
AC50 [3, 11]: 25.3 µM
AC50 [5, 13]: 58.1 µM

SMILES: Oc1c(Br)cc(Br)cc1Br [2,4,6-Tribromophenol]
AC50 [2, 10]: 51.7 µM
AC50 [3, 11]: 72.8 µM
CYP2C19 AC50 (half-maximal activity concentration) [7]: Inconclusive inhibitor
AC50 [4, 12]: 38.5 µM
AC50 [5, 13]: 68.4 µM

SMILES: Oc1c(Cl)c(Cl)c(Cl)c(Cl)c1Cl [Sodium pentachlorophenate]
AC50 [2, 10]: 73.9 µM
AC50 [3, 11]: 71 µM
CYP2C19 AC50 (half-maximal activity concentration) [7]: Inactive
AC50 [5, 13]: 2.15 µM

SMILES: CCCSP(=O)(OCC)Oc1ccc(Br)cc1Cl (stereo not drawn) [Profenofos]
AC50 [1, 9]: 4.22 µM
AC50 [2, 10]: 4.52 µM
AC50 [3, 11]: 3.25 µM
AC50 [4, 12]: 9.76 µM
AC50 [5, 13]: 13.8 µM

SMILES: CN(C/C=C/c1ccccc1)Cc1cccc2ccccc12 [Naftifine hydrochloride]
AC50 [1, 9]: 5.52 µM
AC50 [2, 10]: 12.5 µM
AC50 [3, 11]: 12.4 µM
AC50 [4, 12]: 12.5 µM
AC50 [5, 13]: 1.06 µM

SMILES: OC1(c2ccc(Cl)c(C(F)(F)F)c2)CCN(CCCC(c2ccc(F)cc2)c2ccc(F)cc2)CC1 [Penfluridol]
AC50 [1]: 16.6 ± 4.88 µM
AC50 [2]: 29.9 ± 4.12 µM
AC50 [3]: 2.39 ± 0.41 µM
AC50 [4]: 10.3 ± 1.85 µM
AC50 [5]: 5.85 ± 1.65 µM

SMILES: CCCCC(CC)COP(=O)(O)OCC(CC)CCCC (stereo not drawn) [Bis(2-ethylhexyl) phosphate]
AC50 [1, 9]: 40.6 µM
AC50 [2, 10]: 82.9 µM
AC50 [3, 11]: 37.6 µM
AC50 [4, 12]: 16.5 µM
AC50 [5, 13]: 56.6 µM

SMILES: CCOC(=O)[C@@H](C)Oc1ccc(Oc2nc3ccc(Cl)cc3o2)cc1 [Fenoxaprop-P-ethyl]
AC50 [1, 9]: 62.1 µM
AC50 [2, 10]: 23.8 µM
AC50 [3, 11]: 47.6 µM
AC50 [4, 12]: 55 µM
AC50 [5, 13]: 47.5 µM

SMILES: COC(=O)c1cc(Oc2ccc(Cl)cc2Cl)ccc1[N+](=O)[O-] [Bifenox]
AC50 [1, 9]: 2.45 µM
AC50 [2, 10]: 20.4 µM
AC50 [3, 11]: 5.23 µM
AC50 [4, 12]: 7.1 µM
AC50 [5, 13]: 25.3 µM

SMILES: Oc1c(I)cc(I)cc1I [2,4,6-Triiodophenol]
AC50 [1, 9]: 61.9 µM
AC50 [2, 10]: 37.2 µM
AC50 [3, 11]: 63.5 µM
AC50 [4, 12]: 41.2 µM
AC50 [5, 13]: 80.7 µM

SMILES: Cc1cccc2sc(N)nc12 [2-Amino-4-methylbenzothiazole]
AC50 [1, 9]: 27.8 µM
AC50 [2, 10]: 21.2 µM
CYP2C9 AC50 (half-maximal activity concentration) [6]: Inconclusive inhibitor
AC50 [3, 11]: 11.8 µM
AC50 [5, 13]: 41.1 µM

SMILES: CC(C)C(O)(c1ccc(OC(F)(F)F)cc1)c1cncnc1 (stereo not drawn) [Flurprimidol]
IC50 ([1]; CYP2C19 IC50 (half-maximal inhibitory concentration)): 2.67 µM
IC50 ([2]; CYP1A2 IC50 (half-maximal inhibitory concentration)): 63.3 µM
IC50 ([3]; CYP3A4 IC50 (half-maximal inhibitory concentration)): 0.54 µM
IC50 ([5]; CYP2D6 IC50 (half-maximal inhibitory concentration)): 10.3 µM

SMILES: CC(=O)[C@H]1CC[C@H]2[C@@H]3CCC4=CC(=O)CC[C@]4(C)[C@H]3CC[C@]12C [Progesterone]
AC50 [1, 9]: 4.06 µM
AC50 [2, 10]: 29.9 µM
AC50 [3, 11]: 2.35 µM
AC50 [4, 12]: 26.5 µM
AC50 [5, 13]: 47.7 µM

SMILES: COc1ccc(C(=O)c2ccc(C)cc2)c(O)c1 [Mexenone]
AC50 [1, 9]: 5.89 µM
AC50 [2, 10]: 16.1 µM
AC50 [3, 11]: 6.22 µM
AC50 [4, 12]: 14.7 µM
AC50 [5, 13]: 56.1 µM

AC50 [2]: 38.4 µM
CYP2C9 AC50 (half-maximal activity concentration) [6]: Inconclusive activator
AC50 [3]: 31.1 µM
CYP2C19 AC50 (half-maximal activity concentration) [7]: Inconclusive
AC50 [5]: 61.3 µM
SMILES: Cc1ccnc2ccccc12 [Lepidine]

SMILES: O=C(NC1CCN(CCc2c[nH]c3ccccc23)CC1)c1ccccc1 [Indoramin hydrochloride]
CYP2C9 AC50 (half-maximal activity concentration) [6]: Inactive
AC50 [3, 11]: 15.6 µM
CYP2C19 AC50 (half-maximal activity concentration) [7]: Inactive
AC50 [5, 13]: 4.31 µM
CYP1A2 AC50 (half-maximal activity concentration) [8]: Inactive

SMILES: O=C(O)c1cc(Cl)cc(Cl)c1 [3,5-Dichlorobenzoic acid]
AC50 [2, 10]: 57.8 µM
AC50 [3, 11]: 55.5 µM
CYP2C19 AC50 (half-maximal activity concentration) [7]: Inconclusive inhibitor
AC50 [4, 12]: 58.9 µM
AC50 [5, 13]: 27.8 µM

SMILES: CCOC(=O)C(C)Oc1ccc(Oc2cnc3cc(Cl)ccc3n2)cc1 (stereo not drawn) [Quizalofop-ethyl]
AC50 [1, 9]: 36.2 µM
AC50 [2, 10]: 36.3 µM
AC50 [3, 11]: 12.3 µM
AC50 [4, 12]: 17.4 µM
AC50 [5, 13]: 42.5 µM

SMILES: Cc1ccccc1OP(=O)(Oc1ccccc1C)Oc1ccccc1C [Tri-o-cresyl phosphate]
AC50 [1, 9]: 1.3 µM
AC50 [2, 10]: 32 µM
AC50 [3, 11]: 2.11 µM
AC50 [4, 12]: 4.9 µM
AC50 [5, 13]: 43.3 µM

SMILES: C#CC(C)N(C)C(=O)Nc1ccc(Cl)cc1 (stereo not drawn) [Buturon]
AC50 [1, 9]: 8.68 µM
AC50 [2, 10]: 5.47 µM
AC50 [3, 11]: 9.33 µM
AC50 [4, 12]: 22.8 µM
AC50 [5, 13]: 55.3 µM

AC50 [1]: 50.9 µM
AC50 [2]: 46.8 µM
AC50 [3]: 27.8 µM
AC50 [4]: 5.74 µM
AC50 [5]: 46.8 µM
SMILES: COC(=O)C(C)Oc1ccc(Oc2ncc(C(F)(F)F)cc2Cl)cc1 (stereo not drawn) [Haloxyfop-methyl]

SMILES: O=C(c1ccccc1)C(O)c1ccccc1 (stereo not drawn) [Benzoin]
AC50 [1, 9]: 15.8 µM
AC50 [2, 10]: 22.6 µM
AC50 [3, 11]: 22.8 µM
AC50 [4, 12]: 2.27 µM
AC50 [5, 13]: 36.7 µM

SMILES: Cc1ccc(C(=O)c2ccccc2)cc1 [4-Methylbenzophenone]
AC50 [1, 9]: 13.3 µM
AC50 [2, 10]: 34.3 µM
AC50 [3, 11]: 16 µM
AC50 [4, 12]: 34.3 µM
AC50 [5, 13]: 46.2 µM

SMILES: O=C(CCN1CCC(c2ccccc2)C1)c1ccc2c(c1)OCCO2 (stereo not drawn) [Proroxan]
AC50 [1, 9]: 39.1 µM
AC50 [2, 10]: 32.3 µM
CYP2C9 AC50 (half-maximal activity concentration) [6]: Inconclusive inhibitor
AC50 [3, 11]: 28.8 µM
AC50 [5, 13]: 2.28 µM

SMILES: O=C1C(=O)c2cccc3cccc1c23 [Acenaphthenequinone]
AC50 [1, 9]: 35.7 µM
AC50 [2, 10]: 7.99 µM
CYP2C9 AC50 (half-maximal activity concentration) [6]: Inconclusive inhibitor
AC50 [3, 11]: 23.7 µM
AC50 [5, 13]: 23.4 µM

SMILES: ClC(Cl)(Cl)c1ccc(C(Cl)(Cl)Cl)cc1 [1,4-Bis(trichloromethyl)benzene]
AC50 [2, 10]: 5.66 µM
AC50 [3, 11]: 45.9 µM
CYP2C19 AC50 (half-maximal activity concentration) [7]: Inconclusive inhibitor
AC50 [4, 12]: 34.2 µM
AC50 [5, 13]: 58.6 µM

SMILES: CN1CCC(=C2c3ccccc3Sc3ccccc32)CC1 [Pimethixene maleate]
AC50 [1, 9]: 21.7 µM
CYP2C9 AC50 (half-maximal activity concentration) [6]: Inactive
AC50 [3, 11]: 16.1 µM
AC50 [5, 13]: 3.22 µM
CYP1A2 AC50 (half-maximal activity concentration) [8]: Inactive

SMILES: COP(=O)(OC)O/C(=C\Cl)c1cc(Cl)c(Cl)cc1Cl [Z-Tetrachlorvinphos]
AC50 [1, 9]: 5.82 µM
AC50 [2, 10]: 2.28 µM
AC50 [3, 11]: 2.49 µM
AC50 [4, 12]: 38.8 µM
AC50 [5, 13]: 56.6 µM
